Earlier results on three substances are cited in patent publication US7879746B2, “Hydrophilic polypropylene fibers having antimicrobial activity” (3M Innovative Properties Company, priority 1999, dated 2011).

The conditions of the data set: 100% active, glossary value.
sorbitan monopalmitate [SPAN™ 40]: the HLB is listed as 6.7.
sorbitan monostearate [ARLACEL™ 60]: the HLB is listed as 4.3.
Regarding “sorbitan sequioleate (1½ mole adduct) [ARLACEL™ 83]”, the HLB is listed as 3.7.
